Assay results taken from publication PMC12040169 (PLOS Biology, 2025).
In brackets after ≈: the same amount, converted by molar mass.

Experiments:
[1] = test system: T1, CTL2-GFP (C. trachomatis L2/434/Bu, GFP-expressing); test: microbe, parasite or virus in culture; design: species or system HeLa; C. trachomatis growth in HeLa, dose-response, mean of bulk GFP fluorescence and imaged total inclusion area; details: Chlamydia trachomatis, 28.5 h; mean of GFP and inclusion area
T1 construct: L2/434/Bu, GFP-expressing
Procedure, shortened: (§1)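 Infected cells treated with library compounds were read for bulk GFP (chlamydial growth) and resorufin fluorescence (host viability), then fixed, Hoechst-stained and imaged. Inclusion area and number from GFP, plus nuclei counts, served as additional growth and viability proxies; MICs derived as previously described.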

B. thetaiotaomicron = test system: T2, B. thetaiotaomicron; test: microbe, parasite or virus in culture; design: Microbial growth in liquid dilution assay, OD600 relative to DMSO control; details: Bacteroides thetaiotaomicron; estimated IC50; read-out: B. thetaiotaomicron, IC50 (µM) estimate
T2 construct: DSM 2079
Source text: (§2) Compound effects on commensal microbes in dilution assay As our objective was to discover compounds that inhibit Chlamydia selectively but spare commensal bacteria, we further tested 15 of our top compounds (c1e–c10e and c1v–c5v) against five bacterial species, Escherichia coli, Lactobacillus reuteri, Enterococcus faecalis, Bacteroides thetaiotaomicron, and Bifidobacterium adolescentis, representing the four dominating phyla of the human gut microbiota. […] Exceptions were c3e and c5e, which at 30 µM were inhibitory to some species. […] Of note, c1e–c3e had little or no effect on the growth of an even larger set of species of gut bacteria, also including Blautia coccoides, Prevotella copri, Prevotella histicola, Bacteroides fragilis, and Dubosiella newyorkensis, when tested in radial diffusion assays, in which the bacteria were exposed to compounds for 24–48 h before measurements of growth inhibition zones (S10B Fig and S5G Data).

B. adolescentis = test system: T3, B. adolescentis; test: microbe, parasite or virus in culture; design: Microbial growth in liquid dilution assay, OD600 relative to DMSO control; details: Bifidobacterium adolescentis; estimated IC50; read-out: B. adolescentis, IC50 (µM) estimate
T3 construct: DSM 20083
Source text: as §2

E. faecalis = test system: T4, E. faecalis; test: microbe, parasite or virus in culture; design: Microbial growth in liquid dilution assay, OD600 relative to DMSO control; details: Enterococcus faecalis; estimated IC50; read-out: E. faecalis, IC50 (µM) estimate
T4 construct: DSM 20478
Source text: as §2

L. reuteri = test system: T5, L. reuteri; test: microbe, parasite or virus in culture; design: Microbial growth in liquid dilution assay, OD600 relative to DMSO control; details: Limosilactobacillus reuteri; estimated IC50; read-out: L. reuteri, IC50 (µM) estimate
T5 construct: DSM 20016
Source text: as §2

E. coli = test system: T6, E. coli; test: microbe, parasite or virus in culture; design: Microbial growth in liquid dilution assay, OD600 relative to DMSO control; details: Escherichia coli; estimated IC50; read-out: E. coli, IC50 (µM) estimate
T6 construct: DSM 301
Source text: as §2

in vitro = test: in vitro; design: Viability of infected HeLa host cells, resazurin conversion, bulk resorufin fluorescence relative to DMSO; details: human, hela cells; bulk resorufin, mean of 3
[2] = test system: T1, CTL2-GFP (C. trachomatis L2/434/Bu, GFP-expressing); test: microbe, parasite or virus in culture; design: C. trachomatis growth in HeLa, dose-response, mean of bulk GFP fluorescence and imaged total inclusion area; details: Chlamydia trachomatis, HeLa, 28.5 h; mean of GFP and inclusion area
Procedure, shortened: as §1

L. crispatus = test system: T7, L. crispatus; test: microbe, parasite or virus in culture; design: Microbial growth in liquid dilution assay, OD600 relative to DMSO control; details: Lactobacillus crispatus; estimated IC50; read-out: L. crispatus, IC50 (µM) estimate
T7 construct: DSM 20584

L. iners = test system: T8, L. iners; test: organism not typed; design: Microbial growth in liquid dilution assay, OD600 relative to DMSO control; details: estimated IC50; read-out: L. iners, IC50 (µM) estimate
T8 construct: DSM 13335

G. vaginalis = test system: T9, G. vaginalis; test: microbe, parasite or virus in culture; design: Microbial growth in liquid dilution assay, OD600 relative to DMSO control; details: Gardnerella vaginalis, read-out: G. vaginalis, IC50 (µM) estimate
T9 construct: DSM 4944

C. albicans = test system: T10, C. albicans; test: microbe, parasite or virus in culture; design: Microbial growth in liquid dilution assay, OD600 relative to DMSO control; details: Candida albicans, read-out: C. albicans, IC50 (µM) estimate
T10 construct: DSM 1577

c1c(C2CC2)[nH]c2nc(N3CCCC3)nc(N3CCCC3)c12 [c7e]
MIC [1]: 0.669 µM (≈ 0.199 µg/mL)
IC50 (B. thetaiotaomicron): > 30 µM
IC50 (B. adolescentis): > 30 µM
IC50 (E. faecalis): > 30 µM
IC50 (L. reuteri): > 30 µM
IC50 (E. coli): > 30 µM
viability at 28.5 h, 0.000416667 µM (in vitro): 88.8%
viability at 28.5 h, 0.00125 µM (in vitro): 85.2%
viability at 28.5 h, 0.00375 µM (in vitro): 86.7%
viability at 28.5 h, 0.0123333 µM (in vitro): 86.6%
viability at 28.5 h, 0.037 µM (in vitro): 89.7%
viability at 28.5 h, 0.111 µM (in vitro): 85.9%
viability at 28.5 h, 0.333 µM (in vitro): 89.7%
viability at 28.5 h, 1 µM (in vitro): 87.4%
viability at 28.5 h, 3 µM (in vitro): 89.6%
viability at 28.5 h, 10 µM (in vitro): 86.6%
viability at 28.5 h, 30 µM (in vitro): 81.1%
IC50 [2]: 0.443 µM

O=C(N/N=C\c1ccc([N+](=O)[O-])o1)c1nc(-c2ccccc2)cc(-c2ccccc2)n1 [c3e]
IC50 (L. crispatus): > 30 µM
IC50 (L. iners): > 30 µM
IC50 (G. vaginalis): > 30 µM
IC50 (C. albicans): > 30 µM
IC50 (B. thetaiotaomicron): 10.3 µM
IC50 (B. adolescentis): 18.3 µM
IC50 (E. faecalis): 15.4 µM
IC50 (L. reuteri): > 30 µM
IC50 (E. coli): > 30 µM
viability at 28.5 h, 0.000416667 µM (in vitro): 92%
viability at 28.5 h, 0.00125 µM (in vitro): 92.4%
viability at 28.5 h, 0.00375 µM (in vitro): 88.3%
viability at 28.5 h, 0.0123333 µM (in vitro): 89.2%
viability at 28.5 h, 0.037 µM (in vitro): 86.8%
viability at 28.5 h, 0.111 µM (in vitro): 92.2%
viability at 28.5 h, 0.333 µM (in vitro): 91.6%
viability at 28.5 h, 1 µM (in vitro): 90.7%
viability at 28.5 h, 3 µM (in vitro): 90%
viability at 28.5 h, 10 µM (in vitro): 98.9%
viability at 28.5 h, 30 µM (in vitro): 107%
IC50 [2]: 0.126 µM

O=[N+]([O-])c1ccc2[nH]c3c(c2c1)CCCC3NC1CCN(CCc2ccccc2)CC1 (stereo not shown) [c23e]
MIC [1]: 4 µM (≈ 1.68 µg/mL)
viability at 28.5 h, 0.000416667 µM (in vitro): 96.2%
viability at 28.5 h, 0.00125 µM (in vitro): 90.3%
viability at 28.5 h, 0.00375 µM (in vitro): 91.9%
viability at 28.5 h, 0.0123333 µM (in vitro): 88%
viability at 28.5 h, 0.037 µM (in vitro): 86.6%
viability at 28.5 h, 0.111 µM (in vitro): 87.4%
viability at 28.5 h, 0.333 µM (in vitro): 90.5%
viability at 28.5 h, 1 µM (in vitro): 83.9%
viability at 28.5 h, 3 µM (in vitro): 93.2%
viability at 28.5 h, 10 µM (in vitro): 76%
viability at 28.5 h, 30 µM (in vitro): 6.18%
IC50 [2]: 2.18 µM

COc1ccc(CC(=O)N2CCCC(c3nc(C)c4c(n3)N(CC3CC3)CCC4)C2)cc1 (stereo not shown) [c52e]
MIC [1]: 9.34 µM (≈ 4.06 µg/mL)
viability at 28.5 h, 0.000416667 µM (in vitro): 85.5%
viability at 28.5 h, 0.00125 µM (in vitro): 91.1%
viability at 28.5 h, 0.00375 µM (in vitro): 88.5%
viability at 28.5 h, 0.0123333 µM (in vitro): 92.2%
viability at 28.5 h, 0.037 µM (in vitro): 88.5%
viability at 28.5 h, 0.111 µM (in vitro): 91.4%
viability at 28.5 h, 0.333 µM (in vitro): 88.5%
viability at 28.5 h, 1 µM (in vitro): 96.8%
viability at 28.5 h, 3 µM (in vitro): 90.3%
viability at 28.5 h, 10 µM (in vitro): 95.6%
viability at 28.5 h, 30 µM (in vitro): 102%
IC50 [2]: 8.46 µM

COc1ccc(C2CC(=O)C=C(Nc3cc(Cl)ccc3O)C2)cc1 (stereo not shown) [c24e]
MIC [1]: 5.71 µM (≈ 1.96 µg/mL)
viability at 28.5 h, 0.000416667 µM (in vitro): 94%
viability at 28.5 h, 0.00125 µM (in vitro): 92.4%
viability at 28.5 h, 0.00375 µM (in vitro): 94.1%
viability at 28.5 h, 0.0123333 µM (in vitro): 84.9%
viability at 28.5 h, 0.037 µM (in vitro): 89.8%
viability at 28.5 h, 0.111 µM (in vitro): 84.5%
viability at 28.5 h, 0.333 µM (in vitro): 88.6%
viability at 28.5 h, 1 µM (in vitro): 85.7%
viability at 28.5 h, 3 µM (in vitro): 87.6%
viability at 28.5 h, 10 µM (in vitro): 83.7%
viability at 28.5 h, 30 µM (in vitro): 88.4%
IC50 [2]: 2.46 µM

O=C1C(NCCO)=C(Nc2cccc(Cl)c2)C(=O)c2ccccc21 [c45e]
MIC [1]: 19.4 µM (≈ 6.66 µg/mL)
viability at 28.5 h, 0.000416667 µM (in vitro): 89.2%
viability at 28.5 h, 0.00125 µM (in vitro): 87.4%
viability at 28.5 h, 0.00375 µM (in vitro): 91%
viability at 28.5 h, 0.0123333 µM (in vitro): 91.6%
viability at 28.5 h, 0.037 µM (in vitro): 91.8%
viability at 28.5 h, 0.111 µM (in vitro): 88.5%
viability at 28.5 h, 0.333 µM (in vitro): 92.8%
viability at 28.5 h, 1 µM (in vitro): 89.8%
viability at 28.5 h, 3 µM (in vitro): 93.6%
viability at 28.5 h, 10 µM (in vitro): 97.9%
viability at 28.5 h, 30 µM (in vitro): 102%
IC50 [2]: 6.16 µM

CCOc1ccc2nc(NC(=N)N)nc(C)c2c1 [c37e]
MIC [1]: 11.4 µM (≈ 2.8 µg/mL)
viability at 28.5 h, 0.000416667 µM (in vitro): 85.5%
viability at 28.5 h, 0.00125 µM (in vitro): 89.1%
viability at 28.5 h, 0.00375 µM (in vitro): 85.5%
viability at 28.5 h, 0.0123333 µM (in vitro): 89%
viability at 28.5 h, 0.037 µM (in vitro): 86.7%
viability at 28.5 h, 0.111 µM (in vitro): 91.1%
viability at 28.5 h, 0.333 µM (in vitro): 88.4%
viability at 28.5 h, 1 µM (in vitro): 87.7%
viability at 28.5 h, 3 µM (in vitro): 84.7%
viability at 28.5 h, 10 µM (in vitro): 79%
viability at 28.5 h, 30 µM (in vitro): 55.2%
IC50 [2]: 4.22 µM

CN(C)c1ccc(Nc2nc(NCCO)c3ccccc3n2)cc1 [c27e]
MIC [1]: 5.04 µM (≈ 1.63 µg/mL)
viability at 28.5 h, 0.000416667 µM (in vitro): 93.3%
viability at 28.5 h, 0.00125 µM (in vitro): 89.2%
viability at 28.5 h, 0.00375 µM (in vitro): 89.8%
viability at 28.5 h, 0.0123333 µM (in vitro): 89.3%
viability at 28.5 h, 0.037 µM (in vitro): 93.2%
viability at 28.5 h, 0.111 µM (in vitro): 89.1%
viability at 28.5 h, 0.333 µM (in vitro): 95.3%
viability at 28.5 h, 1 µM (in vitro): 89.9%
viability at 28.5 h, 3 µM (in vitro): 103%
viability at 28.5 h, 10 µM (in vitro): 99.4%
viability at 28.5 h, 30 µM (in vitro): 110%
IC50 [2]: 2.54 µM

O=C(NCCCn1ccnc1)c1cc(-c2cccc(Br)c2)nc2ccccc12 [c50e]
MIC [1]: 9.27 µM (≈ 4.03 µg/mL)
viability at 28.5 h, 0.000416667 µM (in vitro): 90.5%
viability at 28.5 h, 0.00125 µM (in vitro): 90.8%
viability at 28.5 h, 0.00375 µM (in vitro): 90.1%
viability at 28.5 h, 0.0123333 µM (in vitro): 87.8%
viability at 28.5 h, 0.037 µM (in vitro): 86.1%
viability at 28.5 h, 0.111 µM (in vitro): 90.6%
viability at 28.5 h, 0.333 µM (in vitro): 85.4%
viability at 28.5 h, 1 µM (in vitro): 89.1%
viability at 28.5 h, 3 µM (in vitro): 86.3%
viability at 28.5 h, 10 µM (in vitro): 90%
viability at 28.5 h, 30 µM (in vitro): 84.8%
IC50 [2]: 7.95 µM
